# Structures can show the parent of a compound that is named as a salt.
# What was measured:
# [1] = I.P. symptomatology: highest tolerated dose and median lethal dose (Table IV); format: in vivo
# in vivo = conditions: po
# [2] = Mouse tail stimulation (MTS) (Table IV); format: in vivo; design: unit not given here; conditions: S.C.
# Morphine Analgesia = format: in vivo, rat; conditions: for narcotic antagonist potency relative to pentazocine: compared with pentazocine, Table II
# [3] = Analgesic activity summarized over hot plate and writhing methods (Table I); conditions: for analgesic activity, ranking among tested compounds / separation between effective dose and toxic or lethal doses: Table I; for separation between effective dose and toxic or lethal doses: therapeutic index
# [4] = Narcotic antagonism (Table IV); format: in vivo; conditions: I.P.
# [5] = Local anesthetic sciatic block (Table IV); format: in vivo; conditions: 1%
# [6] = Writhing analgesia (Table I); format: in vivo; conditions: oral; vs pentazocine
smiles,measurement,setting,value
"Oc1ccc2c(c1)CCN(C[C@H]1C[C@@H]1c1ccccc1)CC2 (relative stereo) [Example 30, 7-Hydroxy-3(trans-2-phenylcyclopropylmethyl)-1,2,4,5-tetrahydro-3H,3-benzazepine]",LD50,"[1]; in vivo, ip, I.P.",> 1000 mg/kg
"CC1Cc2ccccc2CCN1 (single isomer, unassigned; (+)) [Example 49, (+)-2-Methyl-1,2,4,5-tetrahydro-3H,3-benzazepine hydrochloride]",LD50 (median lethal dose),"[1]; I.P., hydrochloride",200 mg/kg
"CC1Cc2ccccc2CCN1 (single isomer, unassigned; (-)) [Example 48, (-)-2-Methyl-1,2,4,5-tetrahydro-3H,3-benzazepine]",LD50 (median lethal dose),[1]; I.P.,60 mg/kg
"CC1Cc2ccccc2CCN1C (single isomer, unassigned; (-)) [Example 54, (-)-2,3-Dimethyl-1,2,4,5-tetrahydro-3H,3-benzazepine hydrochloride]",LD50 (median lethal dose),"[1]; I.P., hydrochloride",60 mg/kg
COc1ccc2c3c1O[C@H]1[C@@H](O)C=C[C@H]4[C@@H](C2)N(C)CC[C@@]341 [Codeine],LD50,in vivo,540 mg/kg
"COc1ccc2c(c1)CCNCC2 [Example 1, 7-Methoxy-1,2,4,5-tetrahydro-3H,3-benzazepine]",MTS (mouse tail stimulation),[2],> 3
"CC(C)=CCN1CCc2ccc(O)cc2CC1 [Example 4, 3-(3,3-Dimethylallyl)-7-hydroxy-1,2,4,5-tetrahydro-3H,3-benzazepine]",narcotic antagonist potency relative to pentazocine,Morphine Analgesia,more potent antagonist than pentazocine
same,MTS (mouse tail stimulation),[2],> 56
"CC(=O)Oc1ccc2c(c1)CCN(CC=C(C)C)CC2 [Example 5, 7-Acetoxy-3-(3,3-dimethylallyl)-1,2,4,5-tetrahydro-3H,3-benzazepine hydrochloride]",MTS (mouse tail stimulation),[2],> 30
"C=CCN1CCc2ccc(OC)cc2CC1 [Example 14, 3-Allyl-7-methoxy-1,2,4,5-tetrahydro-3H,3-benzazepine]",narcotic antagonist potency relative to pentazocine,Morphine Analgesia,about equipotent to pentazocine
"COc1ccc2c(c1)CCN(C)CC2 [Example 18, 7-Methoxy-3-methyl-1,2,4,5-tetrahydro-3H,3-benzazepine]",oral analgesic activity,[3],active by the oral route
"COc1ccc2c(c1)CCN(CCc1ccccc1)CC2 [Example 24, 7-Methoxy-3-phenethyl-1,2,4,5-tetrahydro-3H,3-benzazepine]",narcotic antagonist potency relative to pentazocine,Morphine Analgesia,about equipotent to pentazocine
same,MTS (mouse tail stimulation),[2],5
same,Narcotic Antagonism,[4],Positive
same,"analgesic activity, ranking among tested compounds",[3],most active compounds
same,separation between effective dose and toxic or lethal doses,[3],greatest separation between effective dose and toxic or lethal doses
same,MTD,"[1]; in vivo, ip, I.P. symptomatology, read-out: HTD (highest tolerated dose)",30 mg/kg
"Oc1ccc2c(c1)CCN(CCc1ccccc1)CC2 [Example 25, 7-Hydroxy-3-phenethyl-1,2,4,5-tetrahydro-3H,3-benzazepine]",HNSD (Highest Non Symptomatic Dose),IP (Intraperitoneal),55 mg/kg
"COc1ccc2c(c1)CCN(CC=Cc1ccccc1)CC2 [Example 28, 7-Methoxy-3-(3-phenylallyl)-1,2,4,5-tetrahydro-3H,3-benzazepine]",narcotic antagonist potency relative to pentazocine,Morphine Analgesia,about equipotent to pentazocine
same,MTS (mouse tail stimulation),[2],10
same,oral analgesic activity,[3],active by the oral route
"COc1ccc2c(c1)CCN(CCN1CCN(c3ccccc3)CC1)CC2 [Example 31, 7-Methoxy-3-[2-(4-phenyl-1-piperazinyl)ethyl]-1,2,4,5-tetrahydro-3H,3-benzazepine]",MTS (mouse tail stimulation),[2],20
same,"analgesic activity, ranking among tested compounds",[3],most active compounds
same,separation between effective dose and toxic or lethal doses,[3],greatest separation between effective dose and toxic or lethal doses
"CC(C)=CCN1CCc2ccc(O)cc2CC1C (stereo not shown) [Example 34, 3-(3,3-Dimethylallyl)-8-hydroxy-2-methyl-1,2,4,5-tetrahydro-3H,3-benzazepine hydrochloride]",MTS (mouse tail stimulation),[2],> 40
"COc1ccc2c(c1)CC(C)N(CCc1ccccc1)CC2 (stereo not shown) [Example 36, 8-Methoxy-2-methyl-3-phenethyl-1,2,4,5-tetrahydro-3H,3-benzazepine hydrochloride]",MTS (mouse tail stimulation),[2],10
same,Local Anesthetic Sciatic Block,[5],Insoluable
"c1ccc2c(c1)CCN(CC1CC1)CC2 [Example 37, 3-Cyclopropylmethyl-1,2,4,5-tetrahydro-3H,3-benzazepine hydrochloride]",MTS (mouse tail stimulation),[2],10
same,writhing activity relative to pentazocine,[6],approximately twice as active as pentazocine
same,oral analgesic activity,[3],active by the oral route
"C=CCN1CCc2ccc(OC)cc2CC1C (stereo not shown) [Example 38, 3-Allyl-8-methoxy-2-methyl-1,2,4,5-tetrahydro-3H,3-benzazepine hydrochloride]",MTS (mouse tail stimulation),[2],> 10
"CC1Cc2cc(O)ccc2CCN1CC1CC1 (stereo not shown) [Example 41, 3-Cyclopropylmethyl-8-hydroxy-2-methyl-1,2,4,5-tetrahydro-3H,3-benzezepine hydrochloride]",MTS (mouse tail stimulation),[2],> 30
"C=CCN1CC[C@]23c4c5ccc(O)c4O[C@H]2[C@@H](O)C=C[C@H]3[C@H]1C5 [Nalorphine, reference compound]","Antagonism of Morphine Analgesia, times more active than compounds listed above","Morphine Analgesia; rat, in vivo, sc",20-100
"CC(C)=CCN1CCC2(C)c3cc(O)ccc3CC1C2C (stereo not shown) [Pentazocine, reference compound]",LDSO,IP,> 500 mg/kg

# — patent publication US4233217A, “Substituted 1,2,4,5-tetrahydro-3H, 3 benzazepines” (priority 1979, dated 1980)
